Test system: SEM cells
Test: cell viability relative to DMSO control; higher = less cytotoxic
Settings: 48 h
How it was run: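 Library compounds in DMSO were pin-dosed into 1536-well plates (5 μl) holding NOMO1 or SEM (500 cells/well) or P12-Ichikawa (1000 cells/well) leukemia cells, across an 11-point threefold series of 47 μM to 0.79 nM. Each cell line had been adapted for at least four passages in each medium. CellTiter-Glo One luminescence was read after 48 h at 37°C. Viability is the per-plate percentage relative to DMSO wells, with cell-free wells as background.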

[1] = HPLM + 10% dialyzed FBS, 0.000781 µM
[2] = HPLM + 10% dialyzed FBS, 0.00234 µM
[3] = HPLM + 10% dialyzed FBS, 0.00702 µM
[4] = HPLM + 10% dialyzed FBS, 0.0211 µM
[5] = HPLM + 10% dialyzed FBS, 0.0632 µM
[6] = HPLM + 10% dialyzed FBS, 0.19 µM
[7] = HPLM + 10% dialyzed FBS, 0.569 µM
[8] = HPLM + 10% dialyzed FBS, 1.71 µM
[9] = HPLM + 10% dialyzed FBS, 5.12 µM
[10] = HPLM + 10% dialyzed FBS, 15.4 µM
[11] = HPLM + 10% dialyzed FBS, 46.1 µM
[12] = RPMI 5 mM glucose + 10% FBS, 0.000781 µM
[13] = RPMI 5 mM glucose + 10% FBS, 0.00234 µM
[14] = RPMI 5 mM glucose + 10% FBS, 0.00702 µM
[15] = RPMI 5 mM glucose + 10% FBS, 0.0211 µM
[16] = RPMI 5 mM glucose + 10% FBS, 0.0632 µM
[17] = RPMI 5 mM glucose + 10% FBS, 0.19 µM
[18] = RPMI 5 mM glucose + 10% FBS, 0.569 µM
[19] = RPMI 5 mM glucose + 10% FBS, 1.71 µM
[20] = RPMI 5 mM glucose + 10% FBS, 5.12 µM
[21] = RPMI 5 mM glucose + 10% FBS, 15.4 µM
[22] = RPMI 5 mM glucose + 10% FBS, 46.1 µM
[23] = RPMI 5 mM glucose + 10% dialyzed FBS, 0.000781 µM
[24] = RPMI 5 mM glucose + 10% dialyzed FBS, 0.00234 µM
[25] = RPMI 5 mM glucose + 10% dialyzed FBS, 0.00702 µM
[26] = RPMI 5 mM glucose + 10% dialyzed FBS, 0.0211 µM
[27] = RPMI 5 mM glucose + 10% dialyzed FBS, 0.0632 µM
[28] = RPMI 5 mM glucose + 10% dialyzed FBS, 0.19 µM
[29] = RPMI 5 mM glucose + 10% dialyzed FBS, 0.569 µM
[30] = RPMI 5 mM glucose + 10% dialyzed FBS, 1.71 µM
[31] = RPMI 5 mM glucose + 10% dialyzed FBS, 5.12 µM
[32] = RPMI 5 mM glucose + 10% dialyzed FBS, 15.4 µM
[33] = RPMI 5 mM glucose + 10% dialyzed FBS, 46.1 µM

SMILES | cell viability [1] [%] | cell viability [2] [%] | cell viability [3] [%] | cell viability [4] [%] | cell viability [5] [%] | cell viability [6] [%] | cell viability [7] [%] | cell viability [8] [%] | cell viability [9] [%] | cell viability [10] [%] | cell viability [11] [%] | cell viability [12] [%] | cell viability [13] [%] | cell viability [14] [%] | cell viability [15] [%] | cell viability [16] [%] | cell viability [17] [%] | cell viability [18] [%] | cell viability [19] [%] | cell viability [20] [%] | cell viability [21] [%] | cell viability [22] [%] | cell viability [23] [%] | cell viability [24] [%] | cell viability [25] [%] | cell viability [26] [%] | cell viability [27] [%] | cell viability [28] [%] | cell viability [29] [%] | cell viability [30] [%] | cell viability [31] [%] | cell viability [32] [%] | cell viability [33] [%]
C[N]1C=NC=C1[C@@](N)(C2=CC=C(Cl)C=C2)C3=CC=C4N(C)C(=O)\C=C(\C5=CC=CC(=C5)Cl)C4=C3 | 112 | 126 | 111 | 103 | 65.5 | 53.1 | 50.7 | 48.5 | 49.2 | 39.8 | 28.6 | 105 | 116 | 109 | 101 | 72.2 | 43.9 | 51.7 | 43.7 | 40.6 | 33.9 | 13.6 | 105 | 102 | 97.9 | 108 | 98.5 | 71 | 65.9 | 62.8 | 55 | 49.7 | 22.3
Cc1nc(Nc2ncc(C(=O)Nc3c(C)cccc3Cl)s2)cc(N2CCN(CCO)CC2)n1 | 88.1 | 106 | 93.3 | 98.3 | 91.7 | 92 | 80.2 | 81.9 | 54.9 | 34.9 | 29.9 | 66.6 | 68.9 | 64.9 | 78.4 | 68.2 | 66.1 | 74.7 | 69.9 | 60.1 | 17.5 | 14.8 | 100 | 102 | 106 | 99.6 | 104 | 99.9 | 88.3 | 79.2 | 50.3 | 26.4 | 25.2
